Results from the OPERA property sets (Mansouri et al. 2018).

Details: 25.0 °C

| SMILES | log10 OH rate constant (cm³/molecule/s) |
| --- | --- |
| Clc1ccc(-c2ccc(Cl)cc2Cl)cc1 | -12 |
| Clc1cc(Cl)c(-c2ccccc2)cc1Cl | -11.9 |
| Clc1ccc(Cl)c(-c2c(Cl)ccc(Cl)c2Cl)c1 | -12.4 |
| Clc1ccc(-c2ccccc2)c(Cl)c1 | -11.6 |
| Clc1ccc(Cl)c(-c2cccc(Cl)c2Cl)c1 | -12.1 |
| Clc1ccc(-c2cc(Cl)ccc2Cl)cc1 | -11.9 |
| Clc1ccc(-c2ccccc2Cl)cc1Cl | -12 |
| Clc1ccc(-c2c(Cl)ccc(Cl)c2Cl)cc1Cl | -12.2 |
| Clc1c(Cl)c(Cl)c(-c2ccccc2)c(Cl)c1Cl | -12 |
| Clc1ccc(-c2ccc(Cl)cc2Cl)c(Cl)c1 | -12 |
